{
  "source": "patent US6391863B1",
  "about": "“Use of carbohydrates for promoting skin desquamation” (L'Oreal, priority 1995, dated 2002)",
  "data": [
    {"test_system": "Banderia simplicifolia isolectin B4", "experiment": "Inhibition of lectin-induced haemagglutination (model of corneocyte cohesion)", "type": "cell-based", "details": "rabbit erythrocytes; lectin at twice its minimum haemagglutinating concentration; carbohydrate starting solution 0.1M, successive dilutions; 30 min contact at ambient temperature", "procedure": "A test to measure the efficacy of the carbohydrates was carried out in vitro. […] The principle of the test lies in the fact that the lectin causes agglutination of the erythrocytes. The products to be tested, which are prepared at various dilutions, are added to the lectin solutions. The minimum concentration of product allowing the inhibition of haemagglutination caused by the lectin is measured. […] To carry out the tests, rabbit erythrocytes marketed by the company Biomérieux under the reference 72291 are employed. These erythrocytes are used in 50% suspension in water. The lectin used is Banderia simplicifolia isolectin B4, marketed by the company SYGMA. All the solutions are diluted in phosphate buffer containing calcium and magnesium. The lectin is dissolved in the phosphate buffer at a concentration of 1 mg/ml. 25 μl of phosphate buffer are distributed in all the wells of the microtitre plates. 25 μl of the lectin to be tested are added to the second well. After homogenization, 25 μl from this well are transferred into the following well and so on to obtain successive dilutions. The erythrocytes are diluted to 1/10^e (fresh solution) . 5 μl of the suspension and 5 μl of the contents of a well are placed on a plate. After mixing by rotation, it is observed whether or not there is haemagglutination. The latter develops in 5 min at the maximum. The minimum quantity of lectin is thus measured, which allows a clear erythrocyte haemagglutination to be obtained. After having measured the minimum quantity of lectin which allows a clear erythrocyte haemagglutination to be obtained, it is chosen to work at twice the concentration. 25 μl of phosphate buffer are placed in microtitre plates to carry out a negative control. In the other wells are distributed 25 μl of lectin at the determined concentration. In the second well are added 25 μl of phosphate buffer to obtain a positive control. In the third well are placed 25 μl of the carbohydrate derivative to be tested in solution at a concentration of 0.1M. After homogenization, 25 μl from this well are taken and placed in the following well and so on so as to obtain successive dilutions. After having left the lectin and the carbohydrate derivative in contact for 30 min at ambient temperature, 5 μl are placed on a plate and are mixed with 5 μl of erythrocyte suspension. It is observed whether or not there is haemagglutination after agitation by rotation. The lowest carbohydrate dilution allowing inhibition of haemagglutination to be observed is measured. The result is given as a fraction (corresponding to the dilution) of the initial concentration (0.1M).", "values": [
      {"molecule": "CCCCCCCC(=O)OC[C@H]1O[C@H](O[C@H]2[C@H](O)[C@@H](O)[C@H](O)O[C@@H]2CO)[C@H](O)[C@@H](O)[C@@H]1O", "note": "[6′-O-octanoyl-D-maltose, 6′-O-octanoyl-β-D-maltose]", "lowest carbohydrate dilution allowing inhibition of haemagglutination to be observed, given as a fraction (corresponding to the dilution) of the initial concentration (0.1M)": "¼"},
      {"molecule": "CC(=O)N[C@H]1C(O)O[C@H](CO)[C@@H](O)[C@@H]1O", "note": "(stereo partly drawn) [N-acetyl-D-glucosamine, reference compound]", "lowest carbohydrate dilution allowing inhibition of haemagglutination to be observed, given as a fraction (corresponding to the dilution) of the initial concentration (0.1M)": "no inhibition observed"},
      {"molecule": "CCCCCCCCOC(=O)N(C)C[C@H](O)[C@@H](O)[C@H](O)[C@H](O)CO", "note": "[N-octyloxycarbonyl-N-methyl-D-glucamine]", "lowest carbohydrate dilution allowing inhibition of haemagglutination to be observed, given as a fraction (corresponding to the dilution) of the initial concentration (0.1M)": "1/64"},
      {"molecule": "N-2-ethylhexyloxy-carbonyl-N-methyl-D-glucamine", "lowest carbohydrate dilution allowing inhibition of haemagglutination to be observed, given as a fraction (corresponding to the dilution) of the initial concentration (0.1M)": "1/16"}
    ]}
  ]
}
